One molecule from US20180125835A1, “Dosage and Use of an A2A Antagonist” (H. Lundbeck A/S, priority 2014, published 2018) can be followed below.

Where a chain is given by its changes, count along the chain named.

In test [1] the target is T1, A1 receptor (Canis lupus familiaris, UniProt P11616).
T1 sequence (P11616 1-326): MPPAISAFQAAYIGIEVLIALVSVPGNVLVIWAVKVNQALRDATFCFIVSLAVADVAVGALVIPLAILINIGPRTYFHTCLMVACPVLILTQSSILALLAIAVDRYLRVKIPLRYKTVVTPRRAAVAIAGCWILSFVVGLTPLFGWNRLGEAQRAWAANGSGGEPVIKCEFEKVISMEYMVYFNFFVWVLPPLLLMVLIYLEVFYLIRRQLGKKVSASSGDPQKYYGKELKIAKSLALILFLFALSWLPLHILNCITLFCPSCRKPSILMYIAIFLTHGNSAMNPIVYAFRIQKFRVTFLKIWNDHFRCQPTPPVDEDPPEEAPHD
As to the kind of experiment: Adenosine receptor binding affinity, dog A1.

Test [2] deals with Long Evans rats. Nature of the test: 5-choice serial reaction time task (5-CSRTT). Type of test: in vivo, rat. The text has this:
(A) Testing under standard conditions, i.e. equivalent to final conditions to which the animals were trained, i.e. stimulus duration (SD) 0.75 seconds (s), inter-trial interval (ITI) 5 s, 100 trials. The purpose of this condition being to measure drug effect on performance under standard conditions. (B) Testing under conditions of extended (long) ITI, i.e. low event rate, SD 0.3 s, ITI 5, 7.5, 10 s, 120 trials. The purpose of this condition being to measure drug effect on performance under lower event rate requiring the animal to delay its responding. (C) Testing under conditions of short ITI, i.e. high event rate, SD 0.3 s, ITI 3, 4, 5 s, 120 trials. The purpose of this condition to measure drug effect on performance under high event rate requiring the animal to rapidly process sensory information. (D) Testing under conditions of extended trials, i.e. SD 0.3 s, ITI 5 s, 250 trials. The purpose of this condition to measure drug effect on performance under extended trials, testing sustained attention or vigilance.
Sixteen (16) experimentally naïve, male Long Evans rats were trained to asymptotic performance in the 5-CSRTT over a period of approximately 2-3 months. The rats were trained to final stimulus duration (SD) of 0.75 s, 5 s inter-trial interval (ITI), 5 s limited hold (LH), 100 trials per session. Target performance levels under these conditions was in the range of >80% accuracy and <20% omissions.
Once the group of animals were trained, multiple drug studies according to various experimental tasks (see table 2 below) was tested in the same cohort of rats. […] The study design was made up of 4 experiments, with each experiment 2-3 weeks in duration and a 1 week intervening period between each experiment.

Test [3] addresses T2, A1 receptor (Homo sapiens, UniProt P30542).
T2 sequence (P30542 1-326): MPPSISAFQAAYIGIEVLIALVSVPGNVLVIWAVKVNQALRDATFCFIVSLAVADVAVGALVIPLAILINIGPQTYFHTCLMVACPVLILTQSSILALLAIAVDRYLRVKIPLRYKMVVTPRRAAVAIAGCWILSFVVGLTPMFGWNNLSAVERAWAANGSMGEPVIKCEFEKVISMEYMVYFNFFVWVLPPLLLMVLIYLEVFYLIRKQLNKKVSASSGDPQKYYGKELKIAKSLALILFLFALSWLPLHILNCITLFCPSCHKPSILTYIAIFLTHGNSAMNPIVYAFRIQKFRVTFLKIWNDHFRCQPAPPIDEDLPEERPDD
As to the kind of experiment: Adenosine receptor binding affinity, human A1.

In test [4] the target is T3, A1 receptor (Callithrix jacchus, UniProt U3EV00).
T3 sequence (U3EV00 1-326): T2 sequence (P30542 1-326) with A157E, M162V, P314T
Nature of the test: Adenosine receptor binding affinity, marmoset A1.

Test [5] has as its target A2A receptor (Mus musculus, UniProt Q60613). Nature of the test: Adenosine receptor binding affinity, mouse A2A.
Test [6] has as its target A2A receptor (Canis lupus familiaris, UniProt P11617). Nature of the test: Adenosine receptor binding affinity, dog A2A.

Chain of A2A receptor (Mus musculus, UniProt Q60613) (Q60613 whole entry): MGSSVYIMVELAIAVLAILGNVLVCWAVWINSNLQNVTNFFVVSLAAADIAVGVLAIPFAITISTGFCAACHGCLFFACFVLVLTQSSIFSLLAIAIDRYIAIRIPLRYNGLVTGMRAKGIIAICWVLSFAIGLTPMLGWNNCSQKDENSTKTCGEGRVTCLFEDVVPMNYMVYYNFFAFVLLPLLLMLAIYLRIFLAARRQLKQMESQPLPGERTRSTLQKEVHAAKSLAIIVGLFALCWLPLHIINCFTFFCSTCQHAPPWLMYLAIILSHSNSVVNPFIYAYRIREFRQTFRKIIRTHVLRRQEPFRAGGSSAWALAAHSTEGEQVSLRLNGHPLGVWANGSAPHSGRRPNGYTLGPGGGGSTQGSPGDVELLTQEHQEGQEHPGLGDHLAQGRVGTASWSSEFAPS
Chain of A2A receptor (Canis lupus familiaris, UniProt P11617) (P11617 whole entry): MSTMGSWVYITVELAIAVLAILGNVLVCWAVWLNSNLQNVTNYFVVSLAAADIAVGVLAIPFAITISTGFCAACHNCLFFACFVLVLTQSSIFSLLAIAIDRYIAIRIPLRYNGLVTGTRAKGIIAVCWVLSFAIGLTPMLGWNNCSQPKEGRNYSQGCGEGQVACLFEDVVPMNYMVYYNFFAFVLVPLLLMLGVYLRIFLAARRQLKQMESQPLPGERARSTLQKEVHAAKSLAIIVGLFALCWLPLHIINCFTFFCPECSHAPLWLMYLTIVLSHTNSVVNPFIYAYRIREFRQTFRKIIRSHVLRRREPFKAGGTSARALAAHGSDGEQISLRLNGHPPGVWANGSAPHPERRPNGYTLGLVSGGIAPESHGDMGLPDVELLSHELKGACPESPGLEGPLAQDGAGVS

The Ki is a dissociation constant, usually derived from enzyme kinetics or from competition with a known ligand. High values mean a looser hold on the target, low ones a stronger hold on the target. As to `Cc1ccc(C(=O)Nc2nc(-c3ccco3)c(C(=O)C3CCOCC3)s2)cn1` [Compound 504], the Ki in test [1] came to 450 ± 51.1 nM; in test [3], 103 ± 18.4 nM; in test [4] it was 305 ± 6.6 nM; in test [5], 0.322 ± 0.0114 nM; in test [6], 0.283 ± 0.0269 nM. For the same molecule, in test [2] (extended 250 trials, 0.1 mg/kg), the “correct trials completed by all rats in Bin 5” value is on record as “at least 13”. Moreover, the “decline in % correct and number of correct responses, increase in omissions over Bins 4 and 5” value in test [2] (extended 250 trials, 0.03-0.1 mg/kg oral, particularly 0.06-0.1 mg/kg) is listed as “protected against the decline”. Besides, the premature responses result in test [2] (long ITI, 0.06 mg/kg oral) was “increased”. For the same molecule, the “accuracy under long ITI” value in test [2] (long ITI, 0.06 mg/kg oral, P=0.09) is on record as “non-significant trend of compound 504 to reduce accuracy”. The “performance in terms of choice accuracy” value in test [2] (short ITI, 0.03-0.06 mg/kg oral, particularly at 3 s ITI) is listed as “improved performance”. The “% correct, # incorrect responses, omissions, premature responses” value in test [2] (short ITI, averaged over the multiple ITI) is given as “improving performance on each measure”. Further, the “other measures (% correct, # correct/incorrect responses, omissions, magazine latency)” value in test [2] (standard conditions) is “unaffected”. The “speed of responding (correct latency)” value in test [2] (standard conditions, doses 0.03-0.1 mg/kg oral) is listed as “significantly increased speed of responding”. In test [2] (standard conditions, significant only at 0.1 mg/kg), the premature responding entry is reported as “increased premature responding”.
